Assay results from US5648455A, “Antibiotic WAP-8294A, method for preparing the same and antibacterial composition” (Wakamoto Pharmaceutical Co., Ltd., priority 1994, dated 1997).
In brackets after ≈: the same amount, converted by molar mass. Numbered stars: 1 amine (or outer) side, 2 acyl side, 3 side chain; on linkers, the order of the positions; unused ones are H or OH. Bridge positions count the residues as written; N and C are the ends. Square brackets hold non-standard residues; d marks the D form. Peptide text beside a SMILES is read from it. ξ: configuration not given here. ξAsn(3ξ-OH) = NC(=O)C(O)C(N)C(=O)O; X2 = CC(C)CCCC(CC(=O)[*:1])O[*:2]; NMeF = CN[CH](Cc1ccccc1)C(=O)O; X1 = CCCCCC(CC(=O)[*:1])O[*:2]; NMeV = CN[CH](C(=O)O)C(C)C; Orn = NCCC[CH](N)C(=O)O

Key:
[1] = tested on: Staphylococcus aureus No. 1 (a clinically isolated strain of MRSA); assay: Protective effect against experimental systemic MRSA infection in mice; format: in vivo, ICR-MCH mice; settings: dose 10 mg/kg, once subcutaneously one hour after infection
Description: (§1) The experiments were carried out by intra-peritoneally administering 0.5 mg/0.5 ml/mouse of cyclophosphamide to ICR-MCH mice [4-week-old male mice (available from Nippon CLEA Co., Ltd.), 8 animals per group] 3 days before the infection and then infecting the animals through intra-peritoneal administration of 0.5 ml each of a liquid containing 2×10^6 /ml of Staphylococcus aureus No. 1 strain supplemented with 5% mucin. One hour after the infection, 10 mg/kg of Vancomycin HCl (available from Shionogi & Co., Ltd.) and 0.2 ml/mouse of the antibiotic WAP-8294A (containing 10 mg/kg, 5 mg/kg, 2.5 mg/kg, 1.0 mg/kg, 0.5 mg/kg, 0.25 mg/kg, 0.1 mg/kg or 0.05 mg/kg of the antibiotic) was once subcutaneously injected to mice. To control groups, there was subcutaneously administered 0.2 ml each of physiological saline.

[2] = tested on: Staphylococcus aureus JCM8702 (a clinically isolated strain of MRSA); assay: as above; format: in vivo, ICR-MCH mice; settings: dose 10 mg/kg, once subcutaneously one hour after infection
Description: as §1, with “2×10^4” for “2×10^6”, “JCM8702” for “No. 1”, “WAP-8294AX” for “WAP-8294A”, “10” for “10 mg/kg, 5”, “1.0” for “1.0 mg/kg, 0.5 mg/kg, 0.25 mg/kg, 0.1”, “0.5” for “0.05”

[3] = tested on: Aspergillus fumigatus (IAM 2004); assay: MIC, broth dilution, sensitive bouillon medium; format: cell-based
Description: (§2) The determination of the minimum inhibitory concentration (MIC) was carried out by broth dilution method which made use of a sensitive bouillon medium (available from Eiken Chemical Co., Ltd.).

[4] = tested on: Bacillus subtilis (ATCC 6633); assay: MIC, broth dilution, sensitive bouillon medium; format: cell-based
Description: as §2

[5] = tested on: Candida albicans (TIMM 0239); assay: MIC, broth dilution, sensitive bouillon medium; format: cell-based
Description: as §2

[6] = tested on: Escherichia coli (ATCC 25922); assay: MIC, broth dilution, sensitive bouillon medium; format: cell-based
Description: as §2

[7] = tested on: Pseudomonas aeruginosa (ATCC 9027); assay: MIC, broth dilution, sensitive bouillon medium; format: cell-based
Description: as §2

[8] = tested on: Staphylococcus aureus (ATCC 25923); assay: MIC, broth dilution, sensitive bouillon medium; format: cell-based
Description: as §2

[9] = tested on: Staphylococcus aureus 371 R (MRSA clinically isolated strain); assay: MIC, broth dilution, sensitive bouillon medium; format: cell-based
Description: as §2

[10] = tested on: Staphylococcus aureus No. 1 (MRSA clinically isolated strain); assay: MIC, broth dilution, sensitive bouillon medium; format: cell-based
Description: as §2

[11] = tested on: Staphylococcus aureus No. 11 (MRSA clinically isolated strain); assay: MIC, broth dilution, sensitive bouillon medium; format: cell-based
Description: as §2

[12] = tested on: Staphylococcus epidermidis (ATCC 12228); assay: MIC, broth dilution, sensitive bouillon medium; format: cell-based
Description: as §2

[13] = tested on: Streptococcus pyogenes (ATCC 19615); assay: MIC, broth dilution, sensitive bouillon medium; format: cell-based
Description: as §2

[14] = tested on: Gram-positive bacteria including MRSA (methicillin-resistant Staphylococcus aureus); assay: Antibacterial activity, summary of Table 4; format: cell-based; settings: for increase of antibacterial activity when 10% bovine serum is added to the culture medium: relative to culture medium without serum; for antibacterial activity against Gram-positive bacteria including MRSA: sensitive bouillon medium, Table 4
Description: as §2

Solubility = format: physicochemical; settings: solvents
[15] = Addition of Serum: 10% (bovine serum)

MIC [3, 15] [µg/mL]	MIC ([3]; Addition of Serum: None) [µg/mL]	MIC [4, 15] [µg/mL]	MIC ([4]; Addition of Serum: None) [µg/mL]	MIC [5, 15] [µg/mL]	MIC ([5]; Addition of Serum: None) [µg/mL]	MIC [6, 15] [µg/mL]	MIC ([6]; Addition of Serum: None) [µg/mL]	MIC [7, 15] [µg/mL]	MIC ([7]; Addition of Serum: None) [µg/mL]	MIC [8, 15] [µg/mL]	MIC ([8]; Addition of Serum: None) [µg/mL]	MIC [9, 15] [µg/mL]	MIC ([9]; Addition of Serum: None) [µg/mL]	MIC [10, 15] [µg/mL]	MIC ([10]; Addition of Serum: None) [µg/mL]	MIC [11, 15] [µg/mL]	MIC ([11]; Addition of Serum: None) [µg/mL]	MIC [12, 15] [µg/mL]	MIC ([12]; Addition of Serum: None) [µg/mL]	SMILES	further results
–	–	–	–	–	–	–	–	–	–	–	–	–	–	–	–	–	–	–	–	CN[C@H](CC(C)C)C(=O)N[C@H]1C(=O)N[C@@H](CC(N)=O)C(=O)N[C@H]2C(=O)N[C@H]3C(=O)N[C@H](C(=O)N[C@H](C(=O)O)c4cc(O)cc(O)c4-c4cc3ccc4O)[C@H](O)c3ccc(c(Cl)c3)Oc3cc2cc(c3O[C@@H]2O[C@H](CO)[C@@H](O)[C@H](O)[C@H]2O[C@H]2C[C@](C)(N)[C@H](O)[C@H](C)O2)Oc2ccc(cc2Cl)[C@H]1O [Vancomycin]	Survival/No. of Test Animals [1]: 5/8; Survival/No. of Test Animals [2]: 5/8
> 100	> 100	< 0.10	0.39 (≈ 0.252 µM)	> 100	> 100	> 100	> 100	> 100	> 100	< 0.10	0.39 (≈ 0.252 µM)	< 0.10	0.39 (≈ 0.252 µM)	< 0.10	0.39 (≈ 0.252 µM)	< 0.10	0.39 (≈ 0.252 µM)	< 0.10	0.39 (≈ 0.252 µM)	CCCCCC1CC(=O)NC(CO)C(=O)NC(C(O)C(N)=O)C(=O)NC(CO)C(=O)NCC(=O)N(C)C(Cc2ccccc2)C(=O)NC(CC(C)C)C(=O)NC(CCCN)C(=O)NC(CCC(=O)O)C(=O)NC(CC(N)=O)C(=O)NC(Cc2c[nH]c3ccccc23)C(=O)NC(CCCN)C(=O)N(C)C(C(C)C)C(=O)O1 (stereo not shown) [WAP-8294A1] (S[ξAsn(3ξ-OH)]SG[NMeF]L[Orn]ENW[Orn][NMeV]; linker N-C via X1; configuration not given here)	MIC [13, 15]: 25 µg/mL (≈ 16.1 µM); MIC ([13]; Addition of Serum: None): 6.25 µg/mL (≈ 4.04 µM); increase of antibacterial activity when 10% bovine serum is added to the culture medium [14]: not less than 8 times; antibacterial activity against Gram-positive bacteria including MRSA [14]: strong antibacterial activity; Solubility (Solubility): soluble in water, methanol, n-butanol, dimethylformamide and dimethylsulfoxide and insoluble in acetone, ethyl acetate and chloroform
> 100	> 100	< 0.10	0.78 (≈ 0.499 µM)	> 100	> 100	> 100	> 100	> 100	> 100	< 0.10	0.78 (≈ 0.499 µM)	< 0.10	0.78 (≈ 0.499 µM)	< 0.10	0.78 (≈ 0.499 µM)	< 0.10	0.78 (≈ 0.499 µM)	< 0.10	0.78 (≈ 0.499 µM)	CC(C)CCCC1CC(=O)NC(CO)C(=O)NC(C(O)C(N)=O)C(=O)NC(CO)C(=O)NCC(=O)N(C)C(Cc2ccccc2)C(=O)NC(CC(C)C)C(=O)NC(CCCN)C(=O)NC(CCC(=O)O)C(=O)NC(CC(N)=O)C(=O)NC(Cc2c[nH]c3ccccc23)C(=O)NC(CCCN)C(=O)N(C)C(C(C)C)C(=O)O1 (stereo not shown) [WAP-8294A2] (S[ξAsn(3ξ-OH)]SG[NMeF]L[Orn]ENW[Orn][NMeV]; linker N-C via X2; configuration not given here)	MIC [13, 15]: 25 µg/mL (≈ 16 µM); MIC ([13]; Addition of Serum: None): 6.25 µg/mL (≈ 4 µM); increase of antibacterial activity when 10% bovine serum is added to the culture medium [14]: not less than 8 times; antibacterial activity against Gram-positive bacteria including MRSA [14]: strong antibacterial activity; Solubility (Solubility): soluble in water, methanol, n-butanol, dimethylformamide and dimethylsulfoxide and insoluble in acetone, ethyl acetate and chloroform
